The values that follow are results of earlier work, collected in US20100284993A1, “Enhancing the Efficacy of Anti-Infective Therapeutics” (priority 2007, published 2010).

The conditions of data set [1]: in vivo.
Data set [2] concerns the target peptidyl prolyl isomerases of the protozoan parasite Trypanosoma cruzi (Trypanosoma cruzi, UniProt Q09734).
Details of data set [3]: unit not given here. Particulars: in vivo.

peptidyl prolyl isomerases of the protozoan parasite Trypanosoma cruzi, sequence (Q09734 30-196): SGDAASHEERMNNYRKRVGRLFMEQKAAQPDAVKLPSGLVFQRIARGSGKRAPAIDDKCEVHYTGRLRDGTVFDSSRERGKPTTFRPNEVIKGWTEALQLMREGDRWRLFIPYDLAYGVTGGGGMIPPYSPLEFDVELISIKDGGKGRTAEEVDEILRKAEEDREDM

Take `C=CC[C@@H]1/C=C(\C)C[C@H](C)C[C@H](OC)[C@H]2O[C@@](O)(C(=O)C(=O)N3CCCC[C@H]3C(=O)O[C@H](/C(C)=C/[C@@H]3CC[C@@H](O)[C@H](OC)C3)[C@H](C)[C@@H](O)CC1=O)[C@H](C)C[C@@H]2OC` [FK506]: the “distribution into protected cellular compartments in the blood” value in data set [1] is 72-98%. On to `CC[C@@H]1/C=C(\C)[C@@H](O)[C@H](C)C[C@H](OC)[C@H]2O[C@@](O)(C(=O)C(=O)N3CCCC[C@H]3C(=O)O[C@H](/C(C)=C/[C@@H]3CC[C@@H](O)[C@H](OC)C3)[C@H](C)[C@@H](O)CC1=O)[C@H](C)C[C@@H]2OC` [L-685,818], for which the “binding preference for T. cruzi peptidyl prolyl isomerases over human FKBP” value in data set [2] was “preferentially binds”.

With `C[C@@H](O)[C@H]1C(=O)N2C(C(=O)O)=C(S[C@@H]3CN[C@H](C(=O)Nc4cccc(C(=O)O)c4)C3)[C@H](C)[C@H]12` [ertapenem], the half life result in data set [3] is listed as “four”. Further, in the data set on Pseudomonas aeruginosa, the “effectiveness against Pseudomonas aeruginosa” value is listed as “not effective”. Consider `C[C@@H](O)[C@H]1C(=O)N2C(C(=O)O)=C(S[C@@H]3CN[C@H](C(=O)N(C)C)C3)[C@H](C)[C@H]12` [meropenem], for which the elimination half life result in data set [3] was “one”.
